Source: patent US11364239B2 (priority 2020, dated 2022)
Entries after “also recorded” stand apart in the source; their conditions may differ.

Columns and labels:
[1] = tested on: Aflatoxin B1-exposed rats; conditions: rat, in vivo
[2] = tested on: rats; conditions: rat, in vivo
[3] = tested on: Aflatoxin B1-exposed rats; conditions: rat, in vivo; remark: listed apart in the source
[4] = tested on: Cyp enzymes (Cyp2b2, Cyp1a1, Cyp3a18, Cyp3a9, Cyp2d2, Cyp2c7, Cyp2a3, Cyp2d1, Cyp2c24, Cyp4a2); conditions: in vivo

CCOC(=O)[C@H](CCc1ccccc1)N[C@@H](C)C(=O)N1Cc2ccccc2C[C@H]1C(=O)O [Quinapril]
beneficial effects on Aflatoxin B1-induced growth impairment or hepatotoxicity ([1]; po): did not show beneficial effects

c1cn2cc(-c3ccc4cn[nH]c4c3)nc(Nc3ccc(N4CCOCC4)cc3)c2n1 [Entospletinib]
mitigating Aflatoxin B1 induced toxicity or injury ([1]; po): only mildly efficacious

Aflatoxin B1
food intake [2]: comparable food intake
hepatocellular BrdU staining [2]: variable
liver histopathology [2]: abnormal liver histopathology
liver hydroxyproline [2]: significant increase
serum ALT [2]: reduced Serum ALT
serum transaminases [2]: trend towards increased serum transaminases
tissue hydroxyproline [2]: mild elevation
weight gain [2]: decreased weight gain

CC(C)CN(C[C@@H](O)[C@H](Cc1ccccc1)NC(=O)O[C@H]1CCOC1)S(=O)(=O)c1ccc(N)cc1 [Amprenavir, [(3S)-oxolan-3-yl] N-[(2S,3R)-4-[(4-aminophenyl)sulfonyl-(2-methylpropyl)amino]-3-hydroxy-1-phenylbutan-2-yl]carbamate]
final weights (indexed weight) [1]: no pairwise comparisons showed significant differences
liver fibrosis, as assessed by Sirius Red staining [1]: decreased liver fibrosis
liver hydroxyproline content [1]: trend towards decreased liver hydroxyproline content
liver hydroxyproline levels (a measure of liver fibrosis) [1]: trends towards decreased hydroxyproline
overall Aflatoxin B1 mitigation activity (liver histopathology: hepatocellular BrdU staining, serum transaminases, hydroxyproline levels) [1]: excellent mitigation activity; also recorded: most efficacious drug
serum ALT levels [1]: significantly lower
serum transaminases [1]: lower serum transaminases
survival [1]: improved survival
effect on Aflatoxin B1-induced reduction in weight gain [3]: no effect
liver hydroxyproline [3]: trends towards reducing
morphometric measurement of liver fibrosis [3]: trends towards reducing
overall effects on Aflatoxin B1-induced liver injury [3]: significant or trends towards significant beneficial effects
serum ALT [3]: reduced serum ALT
expression of Cyp enzymes in rat livers (transcriptomics) [4]: greatly upregulated

Cyp3cide
reduction of Aflatoxin B1-induced liver injury ([1]; po, 50 mg/kg): did not reduce
